Source: patent US20250084039A1, “4-SUBSTITUTED AMINOISOQUINOLINE DERIVATIVES” (Purdue Research Foundation, priority 2016, published 2025)

Legend:
[1] = tested on: MV-4-11; assay: Proliferation inhibition at single concentration (CellTiter-Blue); assay type: cell-based; conditions: 1 μM compound
[2] = target: DAPK1 (Homo sapiens (Human), UniProt P53355); assay: Reaction Biology HotSpot kinase assay; assay type: biochemical; conditions: 500 nM compound; read-out: Percentage kinase inhibition DAPK1
Sequence of DAPK1 (P53355 whole entry): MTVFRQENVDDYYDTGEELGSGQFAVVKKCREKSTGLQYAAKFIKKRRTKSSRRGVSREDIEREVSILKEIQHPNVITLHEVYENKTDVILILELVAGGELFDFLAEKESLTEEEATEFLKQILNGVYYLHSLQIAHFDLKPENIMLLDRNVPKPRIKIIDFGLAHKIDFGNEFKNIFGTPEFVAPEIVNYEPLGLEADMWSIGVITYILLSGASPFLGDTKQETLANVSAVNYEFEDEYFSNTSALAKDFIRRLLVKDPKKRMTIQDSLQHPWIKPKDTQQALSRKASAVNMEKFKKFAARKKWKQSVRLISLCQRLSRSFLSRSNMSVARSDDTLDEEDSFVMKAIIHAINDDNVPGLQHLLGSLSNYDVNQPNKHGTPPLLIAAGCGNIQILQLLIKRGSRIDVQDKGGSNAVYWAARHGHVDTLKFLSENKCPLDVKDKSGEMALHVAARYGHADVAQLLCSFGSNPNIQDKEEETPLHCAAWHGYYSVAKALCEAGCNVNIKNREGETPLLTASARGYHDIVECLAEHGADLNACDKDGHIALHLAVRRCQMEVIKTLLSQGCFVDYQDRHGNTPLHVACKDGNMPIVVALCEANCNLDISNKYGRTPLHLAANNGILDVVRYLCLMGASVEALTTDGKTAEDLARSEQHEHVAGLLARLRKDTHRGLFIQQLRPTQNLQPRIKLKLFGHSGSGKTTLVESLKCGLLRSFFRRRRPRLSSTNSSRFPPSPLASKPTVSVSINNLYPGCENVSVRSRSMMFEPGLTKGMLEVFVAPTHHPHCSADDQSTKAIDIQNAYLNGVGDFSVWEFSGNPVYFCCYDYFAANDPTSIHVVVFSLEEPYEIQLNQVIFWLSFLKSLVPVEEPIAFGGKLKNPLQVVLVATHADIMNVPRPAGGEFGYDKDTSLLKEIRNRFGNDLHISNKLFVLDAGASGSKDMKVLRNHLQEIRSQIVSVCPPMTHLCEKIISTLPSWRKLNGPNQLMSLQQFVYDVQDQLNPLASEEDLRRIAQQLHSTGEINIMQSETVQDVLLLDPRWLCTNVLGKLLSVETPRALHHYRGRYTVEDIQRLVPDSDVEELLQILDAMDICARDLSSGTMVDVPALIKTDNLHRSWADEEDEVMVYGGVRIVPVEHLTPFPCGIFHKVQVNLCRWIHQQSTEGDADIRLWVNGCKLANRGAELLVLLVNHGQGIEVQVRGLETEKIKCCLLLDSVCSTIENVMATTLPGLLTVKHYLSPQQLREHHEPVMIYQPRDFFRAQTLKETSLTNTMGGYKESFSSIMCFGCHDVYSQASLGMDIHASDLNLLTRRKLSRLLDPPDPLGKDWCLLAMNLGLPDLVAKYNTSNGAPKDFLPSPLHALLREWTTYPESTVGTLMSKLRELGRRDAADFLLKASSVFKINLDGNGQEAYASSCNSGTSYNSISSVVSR
How it was run: (§1)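 Read-out is percent remaining kinase activity relative to a DMSO vehicle reaction. Compound was tested once at 500 nM and preincubated 20 min with kinase and substrate, then the reaction ran 2 h at room temperature with 100 μM final ATP spiked with [γ-33P]ATP before spotting onto P81 ion-exchange paper.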

[3] = target: PDGFRb (Homo sapiens (Human), UniProt P09619); assay: Reaction Biology HotSpot kinase assay; assay type: biochemical; conditions: 500 nM compound; read-out: Percentage kinase inhibition PDGFRb
How it was run: as §1

[4] = target: RIPK2 (Homo sapiens (Human), UniProt O43353); assay: Reaction Biology HotSpot kinase assay; assay type: biochemical; conditions: 500 nM compound; read-out: Percentage kinase inhibition RIPK2
Sequence of RIPK2 (O43353 whole entry): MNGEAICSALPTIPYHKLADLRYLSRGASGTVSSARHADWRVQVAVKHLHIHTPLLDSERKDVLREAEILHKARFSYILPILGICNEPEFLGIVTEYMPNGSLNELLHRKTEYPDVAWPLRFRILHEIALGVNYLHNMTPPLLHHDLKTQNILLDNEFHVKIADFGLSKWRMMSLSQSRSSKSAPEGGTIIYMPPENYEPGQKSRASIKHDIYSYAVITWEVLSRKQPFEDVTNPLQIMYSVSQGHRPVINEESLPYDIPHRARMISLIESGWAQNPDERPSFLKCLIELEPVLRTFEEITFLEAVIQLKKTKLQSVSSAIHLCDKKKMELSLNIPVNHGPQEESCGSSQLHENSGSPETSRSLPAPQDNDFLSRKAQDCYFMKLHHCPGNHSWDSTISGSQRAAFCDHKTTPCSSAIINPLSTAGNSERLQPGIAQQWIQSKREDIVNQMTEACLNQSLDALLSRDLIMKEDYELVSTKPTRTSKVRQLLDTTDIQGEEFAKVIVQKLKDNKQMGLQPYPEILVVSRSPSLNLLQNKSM
How it was run: as §1

[5] = target: LYN (Homo sapiens (Human), UniProt P07948); assay: DiscoverX Kd Elect binding
Sequence of LYN (P07948 whole entry): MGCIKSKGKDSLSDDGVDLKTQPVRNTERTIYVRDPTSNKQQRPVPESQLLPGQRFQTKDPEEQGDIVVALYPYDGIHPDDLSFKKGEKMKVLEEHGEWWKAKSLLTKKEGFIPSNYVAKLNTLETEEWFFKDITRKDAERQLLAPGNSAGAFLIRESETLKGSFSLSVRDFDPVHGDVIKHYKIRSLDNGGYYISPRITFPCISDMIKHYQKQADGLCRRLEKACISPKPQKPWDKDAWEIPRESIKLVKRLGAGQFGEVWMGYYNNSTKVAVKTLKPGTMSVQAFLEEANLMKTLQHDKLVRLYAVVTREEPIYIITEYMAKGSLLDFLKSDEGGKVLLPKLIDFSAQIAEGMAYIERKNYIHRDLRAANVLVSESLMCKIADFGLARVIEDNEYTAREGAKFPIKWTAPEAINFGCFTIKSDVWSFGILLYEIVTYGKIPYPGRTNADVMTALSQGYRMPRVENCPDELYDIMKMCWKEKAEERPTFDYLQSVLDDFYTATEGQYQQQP
Protocol: (§2) HCK is expressed more in human primary leukemic stem cells than in human normal hematopoietic stem cells. […] Other protein kinases such as SYK, BRAF, p38 (p38MAPK), PDGFRα/β, FGFR1, RET, FLT4, Tie2 have also been linked to leukemia. […] Thus, it was tested if HSN286 and analogs were also targeting kinases that play critical roles in AML. […] (Table 9). The inhibition of the Src-kinase family could be important clinically because these kinases are downstream of FLT3. In the event of FLT3 mutation, the inhibition of the Src-family kinases could still lead to proliferation inhibition.

[6] = target: FGR (Homo sapiens (Human), UniProt P09769); assay: DiscoverX Kd Elect binding
Protocol: as §2

[7] = target: PIK3CA (Homo sapiens (Human), UniProt P42336); assay: DiscoverX Kd Elect binding
Protocol: as §2

[8] = target: FAK (Homo sapiens (Human), UniProt Q05397); assay: DiscoverX Kd Elect binding
Sequence of FAK (Q05397 whole entry): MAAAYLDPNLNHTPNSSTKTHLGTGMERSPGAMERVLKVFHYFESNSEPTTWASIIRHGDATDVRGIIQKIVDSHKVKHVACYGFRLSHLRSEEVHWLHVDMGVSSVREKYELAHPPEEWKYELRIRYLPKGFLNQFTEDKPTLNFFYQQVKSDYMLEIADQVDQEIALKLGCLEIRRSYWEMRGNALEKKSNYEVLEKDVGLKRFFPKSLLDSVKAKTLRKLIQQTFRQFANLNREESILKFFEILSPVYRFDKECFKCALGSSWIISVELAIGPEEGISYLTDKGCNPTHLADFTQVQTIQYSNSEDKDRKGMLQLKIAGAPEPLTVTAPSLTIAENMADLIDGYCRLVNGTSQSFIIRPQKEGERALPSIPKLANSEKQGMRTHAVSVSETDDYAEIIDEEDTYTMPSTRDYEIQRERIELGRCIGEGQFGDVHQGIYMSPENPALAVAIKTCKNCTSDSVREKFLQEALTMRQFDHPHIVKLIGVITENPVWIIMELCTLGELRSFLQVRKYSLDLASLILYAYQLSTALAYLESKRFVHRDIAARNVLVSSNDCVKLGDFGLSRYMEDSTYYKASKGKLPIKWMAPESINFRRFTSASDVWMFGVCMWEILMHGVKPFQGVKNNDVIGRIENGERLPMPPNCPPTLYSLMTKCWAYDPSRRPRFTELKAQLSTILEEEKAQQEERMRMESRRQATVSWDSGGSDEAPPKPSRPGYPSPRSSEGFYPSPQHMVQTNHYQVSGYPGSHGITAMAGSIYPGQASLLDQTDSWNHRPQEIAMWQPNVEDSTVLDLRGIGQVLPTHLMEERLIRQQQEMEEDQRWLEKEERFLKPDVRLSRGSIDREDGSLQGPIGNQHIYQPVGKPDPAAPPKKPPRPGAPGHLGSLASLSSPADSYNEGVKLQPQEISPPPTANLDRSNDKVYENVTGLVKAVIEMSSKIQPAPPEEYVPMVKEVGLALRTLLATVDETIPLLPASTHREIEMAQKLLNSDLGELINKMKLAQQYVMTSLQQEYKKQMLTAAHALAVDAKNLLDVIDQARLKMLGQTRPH
Protocol: as §2

[9] = target: HCK (Homo sapiens (Human), UniProt P08631); assay: DiscoverX Kd Elect binding
Protocol: as §2

[10] = target: PLK1 (Homo sapiens (Human), UniProt P53350); assay: DiscoverX Kd Elect binding
Protocol: as §2

[11] = target: KIT (Homo sapiens (Human), UniProt P10721); assay: DiscoverX Kd Elect binding
Sequence of KIT (P10721 26-976): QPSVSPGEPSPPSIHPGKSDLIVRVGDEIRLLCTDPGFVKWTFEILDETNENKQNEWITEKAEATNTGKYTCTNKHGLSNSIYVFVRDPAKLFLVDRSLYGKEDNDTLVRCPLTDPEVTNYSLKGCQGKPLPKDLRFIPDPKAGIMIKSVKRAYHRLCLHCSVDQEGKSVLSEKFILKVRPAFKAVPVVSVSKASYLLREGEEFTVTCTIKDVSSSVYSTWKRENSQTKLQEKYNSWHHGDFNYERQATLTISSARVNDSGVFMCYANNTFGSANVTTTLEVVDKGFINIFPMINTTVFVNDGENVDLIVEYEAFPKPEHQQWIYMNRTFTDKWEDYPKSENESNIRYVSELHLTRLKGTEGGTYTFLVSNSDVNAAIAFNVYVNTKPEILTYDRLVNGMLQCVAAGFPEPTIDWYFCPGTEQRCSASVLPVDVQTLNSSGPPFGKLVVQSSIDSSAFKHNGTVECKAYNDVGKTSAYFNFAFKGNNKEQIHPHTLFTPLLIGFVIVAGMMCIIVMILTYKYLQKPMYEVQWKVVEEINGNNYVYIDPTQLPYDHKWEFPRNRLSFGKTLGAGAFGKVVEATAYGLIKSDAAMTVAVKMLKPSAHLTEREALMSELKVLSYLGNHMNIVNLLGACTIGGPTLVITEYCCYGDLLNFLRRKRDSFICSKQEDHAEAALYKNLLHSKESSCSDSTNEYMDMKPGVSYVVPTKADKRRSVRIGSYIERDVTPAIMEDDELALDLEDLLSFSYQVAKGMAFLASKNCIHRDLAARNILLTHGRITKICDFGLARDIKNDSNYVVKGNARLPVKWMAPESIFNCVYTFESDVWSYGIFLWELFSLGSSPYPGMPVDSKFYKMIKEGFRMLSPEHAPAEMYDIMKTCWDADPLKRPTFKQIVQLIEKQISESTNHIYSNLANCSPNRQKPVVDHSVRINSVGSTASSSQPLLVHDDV
Protocol: as §2

[12] = target: FYN (Homo sapiens (Human), UniProt P06241); assay: DiscoverX Kd Elect binding
Protocol: as §2

[13] = target: BLK (Homo sapiens (Human), UniProt P51451); assay: DiscoverX Kd Elect binding
Protocol: as §2

[14] = target: T1, SRC (Homo sapiens (Human), UniProt P12931); assay: DiscoverX Kd Elect binding
T1 sequence (P12931 whole entry, looked up): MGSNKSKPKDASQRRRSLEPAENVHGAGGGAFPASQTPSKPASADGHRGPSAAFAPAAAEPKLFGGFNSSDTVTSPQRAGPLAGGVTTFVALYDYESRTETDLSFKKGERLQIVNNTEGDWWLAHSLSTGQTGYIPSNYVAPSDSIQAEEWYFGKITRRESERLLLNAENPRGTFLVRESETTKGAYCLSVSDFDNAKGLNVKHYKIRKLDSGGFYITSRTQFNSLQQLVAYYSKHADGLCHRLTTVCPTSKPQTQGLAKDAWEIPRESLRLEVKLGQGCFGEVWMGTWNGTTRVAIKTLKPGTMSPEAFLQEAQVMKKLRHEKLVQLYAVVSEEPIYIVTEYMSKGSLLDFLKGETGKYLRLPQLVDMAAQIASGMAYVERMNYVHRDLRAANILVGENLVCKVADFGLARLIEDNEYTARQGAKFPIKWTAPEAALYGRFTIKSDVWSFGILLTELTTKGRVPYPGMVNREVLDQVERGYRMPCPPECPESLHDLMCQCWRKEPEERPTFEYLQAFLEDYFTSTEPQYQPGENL
Protocol: as §2

[15] = target: PIM1 (Homo sapiens (Human), UniProt P11309); assay: DiscoverX Kd Elect binding
Protocol: as §2

[16] = target: AURKA (Homo sapiens (Human), UniProt O14965); assay: DiscoverX Kd Elect binding
Protocol: as §2

[17] = target: T1, SRC; assay: Inhibition of kinase enzymatic activity (IC50); assay type: biochemical
[18] = target: ABL1 (T315I) non-phosphorylated (Homo sapiens (Human), UniProt P00519, T315I); assay: DiscoverX Kd Elect binding
[19] = target: FLT3 (ITD, F691L) (Homo sapiens, UniProt P36888, F691L/ITD); assay: DiscoverX Kd Elect binding
[20] = target: FLT3 ITD (Homo sapiens, UniProt P36888)

SMILES | inhibition at 0.5 µM [2] | inhibition at 0.5 µM [3] | inhibition at 0.5 µM [4] | Kd [5] | Kd [6] | Kd [7] | Kd [8] | Kd [9] | Kd [10] | Kd [11] | Kd [12] | Kd [13] | Kd [14] | Kd [15] | Kd [16] | IC50 [17] | Kd [18] | Kd [19] | other results
CN(C)CC(O)CNC(=O)c1ccc(C#Cc2c(N)ncc3ccc(Cl)cc23)cc1 (stereo not drawn) [HSM1702] | – | – | – | – | – | – | – | – | – | – | – | – | – | – | – | – | – | – | Percent inhibition of proliferation MV-4-11 [1]: 99%
Cc1ccc(C(=O)Nc2ccc(CN3CCN(C)CC3)c(C(F)(F)F)c2)cc1C#Cc1cc(N)nc2ccccc12 [HSN285] | 14% | 46% | 0% | – | – | – | – | – | – | – | – | – | – | – | – | – | – | – | –
Cc1ccc(C(=O)Nc2ccc(CN3CCN(C)CC3)c(C(F)(F)F)c2)cc1C#Cc1c(N)ncc2ccc(Cl)cc12 [HSN286] | 9% | 96% | 25% | 11 nM | 7 nM | 26000 nM | 5100 nM | 3.6 nM | > 30000 nM | 42 nM | 28 nM | 3.9 nM | 16 nM | 11000 nM | > 30000 nM | 4.5 nM | 29 nM | 110 nM | inhibition at 1 µM ([1]; Homo sapiens, MV4-11, read-out: Percent inhibition of proliferation MV-4-11): 99%
Cc1ccc(C(=O)Nc2ccc(CN3CCN(C)CC3)c(C(F)(F)F)c2)cc1C#Cc1cnc(N)c2ncccc12 [HSN356, 3-((8-amino-1,7-naphthyridin-5-yl)ethynyl)-4-methyl-N-(4-((4-methylpiperazin-1-yl)methyl)-3-(trifluoromethyl)phenyl)benzamide] | – | – | – | 5.4 nM | 7.9 nM | > 30000 nM | 4700 nM | 2.5 nM | 9600 nM | 7.2 nM | 38 nM | 1.2 nM | 15 nM | 19000 nM | 5100 nM | 14.9 nM | 2.4 nM | 28 nM | IC50 FLT3 ITD enzymatic inhibition [20]: single digit
